{"source": "patent US20050100563A1", "about": "“Antifungal compositions and methods of treatment therewith” (priority 2001, published 2005)", "origin": "cited, not measured here", "conditions": "in water; stated in parentheses, no measurement described"}
{"smiles": "[O]=[Sn]([F])[F]", "note": "[stannic oxyfluoride]", "values": [{"measurement": "solubility", "result": "approximately 0.3%"}]}
